Series [1] can be described thus: Volume of distribution at steady state in mouse at 1 mg/ml, po or iv. The series is classed as ADME, organism-based. To be noted: in vivo.
Series [2] can be described thus: AUC in mouse at 1 mg/ml, iv. Set-up: dose 1 mg/ml, route iv. To be noted: in vivo. The format is ADME.
The nature of series [3]: MRT in mouse at 1 mg/ml, po or iv. The series is classed as ADME, organism-based. To be noted: in vivo.
Series [4] in a line: Cmax in mouse at 1 mg/ml, po. The format is ADME. Set-up: dose 1 mg/ml, route po. To be noted: in vivo.
Series [5] is described as follows: AUC in mouse at 1 mg/ml, po. The format is ADME. Set-up: dose 1 mg/ml, route po. To be noted: in vivo.
Series [6] can be described thus: Volume of distribution at steady state in rat at 1 mg/ml, po or iv. The series is classed as ADME, organism-based. To be noted: in vivo.
A short description of series [7]: AUC in rat at 1 mg/ml, iv. To be noted: in vivo. Set-up: dose 1 mg/ml, route iv. The series is classed as ADME.
Series [8] in a line: Oral bioavailability in rat at 1 mg/ml. The series is classed as ADME, organism-based. The conditions noted are these: in vivo.
The target in series [9] is T1, Toll-like receptor 7 (Mus musculus, UniProt P58681).
T1 sequence (P58681 whole entry): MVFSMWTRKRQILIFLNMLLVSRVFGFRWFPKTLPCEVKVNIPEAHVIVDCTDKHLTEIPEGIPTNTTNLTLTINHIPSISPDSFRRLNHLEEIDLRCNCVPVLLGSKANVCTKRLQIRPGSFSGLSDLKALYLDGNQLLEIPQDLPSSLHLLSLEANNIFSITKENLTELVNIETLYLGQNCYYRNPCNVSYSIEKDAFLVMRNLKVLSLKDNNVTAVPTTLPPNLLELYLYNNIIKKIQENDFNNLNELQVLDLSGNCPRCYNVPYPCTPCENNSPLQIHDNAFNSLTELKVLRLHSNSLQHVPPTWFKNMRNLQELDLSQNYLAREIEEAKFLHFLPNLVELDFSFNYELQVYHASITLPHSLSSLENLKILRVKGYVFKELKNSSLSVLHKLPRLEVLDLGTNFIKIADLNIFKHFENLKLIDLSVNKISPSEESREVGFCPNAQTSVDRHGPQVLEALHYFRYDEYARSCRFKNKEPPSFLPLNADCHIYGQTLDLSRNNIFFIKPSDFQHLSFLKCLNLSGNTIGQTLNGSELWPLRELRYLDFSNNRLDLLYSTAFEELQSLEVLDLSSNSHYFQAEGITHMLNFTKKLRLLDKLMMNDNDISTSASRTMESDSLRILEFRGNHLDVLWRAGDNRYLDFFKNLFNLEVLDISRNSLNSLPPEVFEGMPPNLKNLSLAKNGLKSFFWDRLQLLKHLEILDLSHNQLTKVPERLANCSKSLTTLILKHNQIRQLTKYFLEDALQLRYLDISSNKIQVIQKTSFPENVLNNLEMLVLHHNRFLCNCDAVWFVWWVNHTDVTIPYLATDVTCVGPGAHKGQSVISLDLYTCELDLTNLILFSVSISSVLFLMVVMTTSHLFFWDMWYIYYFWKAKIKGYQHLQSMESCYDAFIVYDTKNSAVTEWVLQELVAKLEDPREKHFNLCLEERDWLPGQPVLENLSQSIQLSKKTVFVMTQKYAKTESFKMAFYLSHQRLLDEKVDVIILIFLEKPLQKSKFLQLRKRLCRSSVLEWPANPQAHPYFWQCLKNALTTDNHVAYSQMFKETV
In words: Antagonist activity at TLR7 in mouse Splenocyte assessed as reduction in IFN-alpha level measured after 20 hrs by Spectramax M5 method. The format is cell-based.

In series [10] the target is Toll-like receptor 7 (Mus musculus) (UniProt P58681). The experiment in a line: In vivo antagonist activity against TLR7 in mouse assessed as suppression of IFN alpha level at 30 mg/kg, po measured at 3 hrs by LC-MS/MS analysis.
Series [11] is described as follows: Clearance in mouse at 3 mg/kg, iv. The format is ADME, organism-based. To be noted: in vivo.
Series [12] concerns the target T2, Toll-like receptor 7 (Homo sapiens, UniProt Q9NYK1).
T2 sequence (Q9NYK1 whole entry): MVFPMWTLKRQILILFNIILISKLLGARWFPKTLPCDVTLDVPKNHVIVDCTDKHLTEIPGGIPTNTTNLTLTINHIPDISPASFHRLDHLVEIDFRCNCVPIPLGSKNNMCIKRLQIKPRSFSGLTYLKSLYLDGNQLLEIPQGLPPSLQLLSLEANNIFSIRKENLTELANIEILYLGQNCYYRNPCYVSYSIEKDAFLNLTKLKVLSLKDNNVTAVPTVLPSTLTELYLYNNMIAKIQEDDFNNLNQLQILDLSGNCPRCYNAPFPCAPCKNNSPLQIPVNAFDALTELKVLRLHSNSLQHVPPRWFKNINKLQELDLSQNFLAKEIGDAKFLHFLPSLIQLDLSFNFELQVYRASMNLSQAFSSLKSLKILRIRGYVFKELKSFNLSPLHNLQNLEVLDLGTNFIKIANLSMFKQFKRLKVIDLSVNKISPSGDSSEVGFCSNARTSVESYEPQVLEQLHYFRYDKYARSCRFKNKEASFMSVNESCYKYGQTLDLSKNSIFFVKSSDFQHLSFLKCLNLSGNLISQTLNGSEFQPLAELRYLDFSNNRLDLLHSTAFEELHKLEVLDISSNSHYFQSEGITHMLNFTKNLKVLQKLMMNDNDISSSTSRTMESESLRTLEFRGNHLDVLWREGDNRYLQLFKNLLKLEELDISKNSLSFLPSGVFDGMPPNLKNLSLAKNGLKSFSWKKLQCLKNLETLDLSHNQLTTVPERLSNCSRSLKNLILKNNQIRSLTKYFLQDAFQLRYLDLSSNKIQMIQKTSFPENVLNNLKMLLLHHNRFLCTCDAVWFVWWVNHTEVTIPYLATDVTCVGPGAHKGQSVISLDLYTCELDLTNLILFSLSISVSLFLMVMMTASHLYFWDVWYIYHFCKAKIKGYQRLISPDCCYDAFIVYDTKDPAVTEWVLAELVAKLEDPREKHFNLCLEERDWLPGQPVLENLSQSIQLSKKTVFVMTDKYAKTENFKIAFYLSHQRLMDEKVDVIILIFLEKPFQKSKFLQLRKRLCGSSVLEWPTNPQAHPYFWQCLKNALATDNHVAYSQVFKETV
The experiment in a line: Antagonist activity at TLR7 in human PBMC cells assessed as reduction in IFN alpha measured after 20 hrs by AlphaLISA assay. The series is classed as cell-based.

Each structure is given as a SMILES string.

For the molecule `Cc1cc(N2CCc3c(c(C)nn3CC34CCC(NC(=O)[C@@H]5COCCN5)(CC3)CC4)C2)c2cnn(C)c2n1` [MHV-370], the Vdss was found to be 0.7 L/kg in [1] and 1.3 L/kg in series [6]. Moreover, the AUC in series [2] is 5.67 µM·h; in series [5] it was 9.16 µM·h; in series [7], 1.78 µM·h. In addition, in series [3], the mean residence time MRT was 1 h. Also, the highest level in series [4] (Cmax) was 1860 nM. Further, the bioavailability in series [8] turned out to be 52%. The IC50 on Toll-like receptor 7 [9] stood at 9 nM. The Activity in series [10] amounted to 1347 ng/mL.
For the molecule `Cc1cc(N2CCc3c(c(C)nn3CC34CCC(N)(CC3)CC4)C2)c2cnn(C)c2n1`, the clearance in series [11] was found to be 24 mL/min/kg. In addition, the IC50 at Toll-like receptor 7 [12] was 20 nM; at Toll-like receptor 7 [9], 74 nM.
Take `CCNCC(=O)NC12CCC(Cn3nc(C)c4c3CCN(c3cc(C)nc5c3cnn5C)C4)(CC1)CC2`: the figures for the Vdss in series [1] and in series [6] were 1 L/kg and 3 L/kg, respectively. In addition, the AUC amounted to 9.28 µM·h in [2], 4.63 µM·h in series [5] and 1.78 µM·h in [7]. Moreover, the MRT in series [3] was 2.4 h. Moreover, the Cmax in series [4] was 515 nM. In series [8], this molecule yielded a bioavailability of 12%. Further, the IC50 on Toll-like receptor 7 [12] came to 17 nM.

Source of the values: ChEMBL document CHEMBL5360657, “Discovery of the TLR7/8 Antagonist MHV370 for Treatment of Systemic Autoimmune Diseases” (ACS Med Chem Lett, 2023).
